The nature of data set [1]: Measured logD of radioligands (n-octanol / sodium phosphate buffer). It is filed as physicochemical. The following applies: n-octanol / sodium phosphate buffer 0.1 M pH 7.4; γ-counter. As to the method:
cLogD (at pH 7.4) values were computed with Pallas for Windows software version 3.8 in default mode (CompuDrug International; Bal Harbor, FL, USA). The logD values of [^11C]17, [^18F]20, and [d2-^18F]27 were measured by a method that we have described previously. The radioactivity contents in the n-octanol and sodium phosphate buffer (0.1 M; pH 7.4) phases were determined with a γ-counter.

For data set [2], the target named is T1, COX-2 (Homo sapiens, UniProt P35354).
T1 construct: endogenous in cells; host or cells: fresh human whole blood
T1 sequence (P35354 18-604): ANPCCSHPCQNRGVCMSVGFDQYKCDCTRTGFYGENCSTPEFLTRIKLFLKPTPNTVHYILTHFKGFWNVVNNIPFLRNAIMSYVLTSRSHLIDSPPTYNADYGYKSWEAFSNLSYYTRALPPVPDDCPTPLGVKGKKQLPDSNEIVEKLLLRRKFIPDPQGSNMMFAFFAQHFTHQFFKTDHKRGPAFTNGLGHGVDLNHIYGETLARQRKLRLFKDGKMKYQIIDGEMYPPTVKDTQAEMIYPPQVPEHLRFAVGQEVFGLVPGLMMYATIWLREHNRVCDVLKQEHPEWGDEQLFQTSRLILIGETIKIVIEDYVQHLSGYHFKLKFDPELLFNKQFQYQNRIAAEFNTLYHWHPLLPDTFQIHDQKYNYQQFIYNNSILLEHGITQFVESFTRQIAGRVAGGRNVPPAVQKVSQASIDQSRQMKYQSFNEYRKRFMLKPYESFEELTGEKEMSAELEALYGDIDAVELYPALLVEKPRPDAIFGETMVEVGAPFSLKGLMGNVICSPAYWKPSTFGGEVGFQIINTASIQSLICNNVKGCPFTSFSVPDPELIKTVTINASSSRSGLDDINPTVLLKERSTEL
As to the kind of experiment: COX-2 inhibition, human whole blood (Prostaglandin E2 EIA). The format is cell-based. The following applies: mean ± SD, triplicate unless d n = 1, e n = 2; read-out: IC50 COX-2 Human WB.

In a further data set the test system is benzodiazepine (BzP). Description: NIMH-PDSP radioligand binding screen, benzodiazepine site. Further details: species or system rat. As to conditions: 10 μM.
Data set [3] deals with all tested receptors, transporters, and binding sites. Description: NIMH-PDSP radioligand binding screen, whole panel. The following applies: 10 μM; except the sites named for 17 and 27.
Data set [4] deals with T2, COX-1 (Homo sapiens, UniProt P23219). As to the kind of experiment: COX-1 inhibition, human whole blood (Thromboxane B2 EIA).
Description: (§1) Thromboxane B2 EIA kit (COX-1) and Prostaglandin E2 EIA Kit (COX-2) were purchased from Cayman Chemicals, USA [45]. Blood from non-treated rhesus monkey and healthy human subjects was used with these ELISA kits to establish the inhibitory potencies (IC50’s) of test compounds for these enzymes [46]. Thromboxane, the product of COX-1, and prostaglandin E2, the product of COX2, were measured using 96-well plates and a UV spectrophotometer. The concentration-inhibition curves were fitted into a 4-parameter non-linear regression model in GraphPad Prism to calculate the IC50 of each test compound.
In data set [5] the target is T3, COX-1 (Macaca mulatta, UniProt F6S984).
T3 sequence (F6S984 25-599): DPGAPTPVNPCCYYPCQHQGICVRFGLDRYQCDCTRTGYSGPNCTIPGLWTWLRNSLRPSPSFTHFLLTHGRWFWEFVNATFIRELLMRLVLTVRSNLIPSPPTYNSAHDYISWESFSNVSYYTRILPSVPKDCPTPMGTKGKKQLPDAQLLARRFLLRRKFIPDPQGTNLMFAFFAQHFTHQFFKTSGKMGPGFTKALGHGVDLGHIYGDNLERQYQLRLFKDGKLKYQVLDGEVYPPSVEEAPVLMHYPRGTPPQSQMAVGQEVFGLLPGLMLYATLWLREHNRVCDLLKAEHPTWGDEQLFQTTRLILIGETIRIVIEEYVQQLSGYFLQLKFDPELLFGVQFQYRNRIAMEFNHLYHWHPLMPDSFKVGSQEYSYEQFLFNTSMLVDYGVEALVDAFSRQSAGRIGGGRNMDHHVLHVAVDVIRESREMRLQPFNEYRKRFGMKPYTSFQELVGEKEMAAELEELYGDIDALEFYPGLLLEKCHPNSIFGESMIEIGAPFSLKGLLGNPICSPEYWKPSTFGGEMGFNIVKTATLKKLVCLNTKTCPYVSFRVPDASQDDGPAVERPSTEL
Description: COX-1 inhibition, monkey whole blood (Thromboxane B2 EIA).
Description: as §1

Data set [6] concerns the target T4, COX-2 (Macaca mulatta, UniProt F7BWZ9).
T4 sequence (F7BWZ9 18-604): T1 sequence (P35354 18-604) with H7Y, F49L, A101V, L150F, S163T, N191K, A208D, R211H, T363N, G570R
As to the kind of experiment: COX-2 inhibition, monkey whole blood (Prostaglandin E2 EIA).
Description: as §1

For data set [7] the following is noted: Chart 1; cited from earlier work.
The next data set addresses 5-HT1B (Homo sapiens, UniProt P28222). Description: NIMH-PDSP radioligand binding screen, 5-HT1B.
The next data set relates to human COX-2. As to conditions: cited from earlier work.
Data set [8] concerns the target DAT (dopamine transporter) (Homo sapiens, UniProt Q01959). Description: NIMH-PDSP radioligand binding screen, DAT. The following applies: read-out: inhibition of radioligand binding at DAT.
The target in data set [9] is T2, COX-1. More on the design: endogenous in cells; host or cells: fresh human whole blood. As to conditions: footnote c; SE <15%; read-out: IC50 COX-1 Human WB (literature); cited from earlier work.
In data set [10] the target is COX-2. More on the design: method as in literature cited in the text (18-30). The following applies: Chart 1; ref literature cited in the text (18-30); cited from earlier work.
Data set [11] has as its system COX-2. The following applies: Chart 1; PET in vivo; ref literature cited in the text (18-30); cited from earlier work.

Changes are numbered by the printed parent chain. Read-outs that look alike come from different tables or passages of the source.

T2 sequence (P23219 24-599): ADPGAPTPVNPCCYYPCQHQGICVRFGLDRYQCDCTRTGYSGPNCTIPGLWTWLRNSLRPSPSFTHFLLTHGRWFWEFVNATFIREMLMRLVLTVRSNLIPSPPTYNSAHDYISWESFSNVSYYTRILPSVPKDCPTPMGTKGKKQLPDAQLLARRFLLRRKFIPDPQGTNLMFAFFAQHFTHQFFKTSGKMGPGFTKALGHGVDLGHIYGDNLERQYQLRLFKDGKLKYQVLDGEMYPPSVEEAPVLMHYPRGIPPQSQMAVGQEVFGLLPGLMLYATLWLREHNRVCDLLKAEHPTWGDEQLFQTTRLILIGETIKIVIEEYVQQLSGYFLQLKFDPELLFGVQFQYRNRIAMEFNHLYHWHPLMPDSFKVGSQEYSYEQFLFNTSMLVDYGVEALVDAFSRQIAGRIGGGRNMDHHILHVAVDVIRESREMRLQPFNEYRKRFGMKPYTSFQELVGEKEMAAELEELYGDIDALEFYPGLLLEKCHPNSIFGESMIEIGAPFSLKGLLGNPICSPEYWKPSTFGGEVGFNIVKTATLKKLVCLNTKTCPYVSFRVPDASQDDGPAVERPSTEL
Chain of DAT (dopamine transporter) (Q01959 whole entry, species assumed): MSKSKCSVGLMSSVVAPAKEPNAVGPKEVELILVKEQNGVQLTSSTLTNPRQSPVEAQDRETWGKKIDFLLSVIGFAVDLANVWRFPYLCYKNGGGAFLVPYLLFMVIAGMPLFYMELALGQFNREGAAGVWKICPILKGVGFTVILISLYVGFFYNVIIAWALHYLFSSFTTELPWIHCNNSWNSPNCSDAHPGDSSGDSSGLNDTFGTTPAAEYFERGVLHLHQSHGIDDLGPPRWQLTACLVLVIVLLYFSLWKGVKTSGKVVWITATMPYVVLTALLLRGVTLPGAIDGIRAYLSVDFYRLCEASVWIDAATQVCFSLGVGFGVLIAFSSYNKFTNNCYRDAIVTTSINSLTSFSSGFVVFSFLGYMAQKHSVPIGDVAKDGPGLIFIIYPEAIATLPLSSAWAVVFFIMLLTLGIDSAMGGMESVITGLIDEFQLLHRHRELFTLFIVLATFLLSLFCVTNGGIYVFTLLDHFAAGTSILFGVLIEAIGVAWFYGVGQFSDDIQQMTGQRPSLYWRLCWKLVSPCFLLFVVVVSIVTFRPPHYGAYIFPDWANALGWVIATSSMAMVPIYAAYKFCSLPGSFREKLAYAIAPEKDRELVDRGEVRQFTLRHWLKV
Chain of 5-HT1B (P28222 whole entry): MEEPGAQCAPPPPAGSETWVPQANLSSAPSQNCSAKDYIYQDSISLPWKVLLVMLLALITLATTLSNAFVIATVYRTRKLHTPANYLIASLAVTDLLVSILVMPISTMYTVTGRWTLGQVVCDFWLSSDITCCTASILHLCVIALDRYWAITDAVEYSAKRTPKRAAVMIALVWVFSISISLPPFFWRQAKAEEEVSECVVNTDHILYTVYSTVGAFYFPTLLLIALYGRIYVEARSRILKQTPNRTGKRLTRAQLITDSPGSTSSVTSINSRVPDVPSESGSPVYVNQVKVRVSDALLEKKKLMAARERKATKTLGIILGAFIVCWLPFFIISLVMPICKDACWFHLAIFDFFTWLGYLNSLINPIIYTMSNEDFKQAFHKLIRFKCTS

For the molecule `[2H]C([2H])([18F])Oc1cc(NCc2cccs2)nc(-c2ccc(S(C)(=O)=O)cc2)n1` [[d2-^18F]27], the logD in data set [1] turned out to be 3.7 ± 0.12.
`CS(=O)(=O)c1ccc(-c2nc(NCc3cccs3)cc(OCF)n2)cc1` [Compound 27, 6-(2-Fluoromethoxy)-2-(4-(methylsulfonyl)phenyl)-N-(thiophen-2-yl-methyl)pyrimidin-4-amine]: the IC50 on COX-2 [2] was 2.26 ± 0.63 nM; on COX-1 [4], above 1000 nM; against COX-1 [5] it was above 1000 nM; on COX-2 [6], 2.26 ± 0.45 nM. In addition, the “inhibition of radioligand binding at benzodiazepine (BzP)” value with benzodiazepine (BzP) was determined as 50.8%. The “inhibition of radioligand binding at all tested receptors, transporters, and binding sites” value in data set [3] is recorded as “less than 50%”.
The molecule `CS(=O)(=O)c1ccc(-c2nc(NCc3cccs3)cc(OCC[18F])n2)cc1` [[^18F]20] showed a logD in data set [1] of 2.94 ± 0.32.
For the molecule `CS(=O)(=O)c1ccc(-c2cc(C(F)(F)F)nc(NCc3ccc([18F])cc3)n2)cc1` [[^18F]10, [^18F]pyricoxib], the logD in data set [7] is recorded as 3.37.
In turn, `COc1cc(NCc2cccs2)nc(-c2ccc(S(C)(=O)=O)cc2)n1` [Compound 17, 6-Methoxy-2-(4-(methylsulfonyl)phenyl)-N-(thiophen-2-ylmethyl)pyrimidin-4-amine] registered a melting point of 139 to 141 °C. Further, the inhibition at 10 µM on 5-HT1B came to 50%. Besides, the “inhibition of radioligand binding at benzodiazepine (BzP)” value in the data set with benzodiazepine (BzP) was 50.6%. In addition, the “inhibition of radioligand binding at all tested receptors, transporters, and binding sites” value in [3] is listed as “less than 50%”. Further, the IC50 with human COX-2 (Table 1, human whole blood COX-2, SEM <15%, read-out: HWB IC50) was […]. Further, in the data set with human COX-2 (footnote c, SE <15%, read-out: IC50 COX-2 Human WB (literature) (converted)), the IC50 was […]. Moreover, in data set [8], the inhibition at 10 µM was 53.7%. For the same molecule, the concentration for half-maximal inhibition (IC50) on COX-1 [4] is above 1000 nM. Besides, the IC50 at COX-1 [5] was above 1000 nM. On COX-2 [6], the IC50 stood at 2.58 ± 0.23 nM. Moreover, the IC50 on COX-1 [9] is above 8800 nM.
For `CS(=O)(=O)c1ccc(-c2ccsc2-c2ccc([18F])cc2)cc1` [[^18F]9, [^18F]desbromo-DuP-697], the Ki at COX-2 [10] was 250 nM. Besides, the logP in data set [7] is on record as 3.72. For the same molecule, in the data set with COX-2 [11], the brain entry entry is recorded as “Brain penetrant”.

The record behind these values is PMC6278313.
